The results in this text go back to patent US20210187012A1, “ANTI-COAGULANT AGENT, ANTICOAGULATION DEVICE, BLOOD COAGULATION CURING METHOD, VASCULAR ENDOTHELIAL CELL FUNCTION IMPROVING METHOD, AND METABOLISM IMPROVING METHOD” (H2BANK CO., LTD., priority 2018, published 2021).

The subject of the assay is membrane potential of mitochondria. Conditions: in the presence of molecular hydrogen.

As for `[HH]` [hydrogen], the “signal of TMRE (membrane potential) reduced” value was “about 10%”.
